Data from patent publication EP4678638A1, “NEW E3 UBIQUITIN LIGASE LIGAND, PROTEIN DEGRADATION AGENT AND USE THEREOF” (priority 2023, dated 2024).
pIC50: −log10 of the molar value. Read-outs that look alike come from different tables or passages of the source.

Assays:
H2228 = assay: CCK-8 proliferation, NCI-H2228 (H2228); format: cell-based; details: Homo sapiens, NCI-H2228; Table B6, compounds designed based on the ALK inhibitors; H2228 cells; read-out: Inhibitory activity (IC50, nM) on tumor cell proliferation, H2228
Description: (§1) The tumor cells used herein were cultured in a cell culture medium listed in table A1 at 37°C in an incubator with 5% CO2. Prior to experimentation, all cell lines used were correctly identified by STR profiling, and tested negative for mycoplasma contamination using a mycoplasma detection kit through routine screenings. Table A1. Tumor cells and cell culture medium used in the present disclosure
(§2) IC50 values of the compounds of the present disclosure (including the compounds in Table 1, and compounds of examples) were measured using the Meilun Cell Counting Kit-8 kit from Dalian Meilun Biotech Co., Ltd. Assay details are as follows: tumor cells were seeded in a 96-well plate at a density listed in Table A2. After 24h, 100 µL of the inoculated cells were treated with 0.5µL of the compounds of the present disclosure (including the compounds in Tables 1 and 2, and compounds of examples) at 10 different successively decreasing concentrations (starting at the highest concentration of 10µM; 5-fold serial dilutions). After the cells were treated with the compounds of the present disclosure for a period of time, the cell viability detection reagent was added to the culture medium for cell viability assessment according to the instructions provided with the CCK-8 kit. […] The growth inhibition of the compounds of the present disclosure on cells was plotted by Prism Graphpad software, and the IC50 values of the compounds of the present disclosure were calculated therefrom. […] Seeding protocol and treatment time for tumor cells

SR = assay: CCK-8 proliferation, SR; format: cell-based, Human; details: Homo sapiens; Table B6, compounds designed based on the ALK inhibitors; SR cells; read-out: Inhibitory activity (IC50, nM) on tumor cell proliferation, SR
Description: as §1, §2

MCF7 = assay: CCK-8 proliferation, MCF7 (MCF-7); format: cell-based; details: Homo sapiens, MCF7; for IC50: Table B6, compounds designed based on the ALK inhibitors, MCF-7 cells, read-out: Inhibitory activity (IC50, nM) on tumor cell proliferation, MCF-7
Description: as §1, §2

H1975 = assay: CCK-8 proliferation, NCI-H1975 (H1975); format: cell-based, Human; details: Homo sapiens, NCI-H1975; for IC50: Table B6, compounds designed based on the ALK inhibitors, H1975 cells, read-out: Inhibitory activity (IC50, nM) on tumor cell proliferation, H1975; for pIC50: CCK-8, 96 hours, read-out: Inhibitory activity (IC50) on tumor cell proliferation, H1975
Description: as §1, §2

Structure (SMILES)	IC50 (H2228) [nM]	IC50 (SR) [nM]	pIC50 (H1975)	also measured
CCc1cc2c(cc1N1CCC(N3CCN(Cc4cccc(NC5CCC(=O)NC5=O)c4)CC3)CC1)C(C)(C)c1[nH]c3cc(C#N)ccc3c1C2=O (stereo not drawn) [GT-07313, 8-(4-(4-(3-((2,6-dioxopiperidin-3-yl)amino)benzyl)piperazin-1-yl)piperidin-1-yl)-9-ethyl-6,6-dimethyl-11-oxo-6,11-dihydro-5H-benzo[b]carbazole-3-carbonitrile]	100 to 500	1 to 10		
COc1cc(N2CCN(Cc3cncc(N4CCC(=O)NC4=O)c3)CC2)ccc1Nc1ncc(Cl)c(Nc2ccccc2P(C)(C)=O)n1 [GT-07709, 1-(5-((4-(4-((5-chloro-4-((2-(dimethylphosphoryl)phenyl)amino)pyrimidin-2-yl)amino)-3-methoxyphenyl)piperazin-1-yl)methyl)pyridin-3-yl)dihydropyrimidine-2,4(1H,3H)-dione]	500 to 1000	50 to 100		
Cc1cc(Nc2ncc(Cl)c(Nc3ccccc3S(=O)(=O)C(C)C)n2)c(OC(C)C)cc1C1CCN(Cc2ccc(C3CCC(=O)NC3=O)c(F)c2)CC1 (stereo not drawn) [GT-07365, 3-(4-((4-(4-((5-chloro-4-((2-(isopropylsulfonyl)phenyl)amino)pyrimidin-2-yl)amino)-5-isopropoxy-2-methylphenyl)piperidin-1-yl)methyl)-2-fluorophenyl)piperidine-2,6-dione]	100 to 500	100 to 500		
CCc1cc2c(cc1N1CCC(N3CCN(Cc4ccc(N5CCC(=O)NC5=O)cc4)CC3)CC1)C(C)(C)c1[nH]c3cc(C#N)ccc3c1C2=O [GT-07307, 8-(4-(4-(4-(2,4-dioxotetrahydropyrimidin-1(2H)-yl)benzyl)piperazin-1-yl)piperidin-1-yl)-9-ethyl-6,6-dimethyl-11-oxo-6,11-dihydro-5H-benzo[b]carbazole-3-carbonitrile]	100 to 500	10 to 50		IC50 (MCF7): 100 to 500 nM
CCc1cc2c(cc1N1CCC(N3CCN(Cc4ccnc(N5CCC(=O)NC5=O)c4)CC3)CC1)C(C)(C)c1[nH]c3cc(C#N)ccc3c1C2=O [GT-07701, 8-(4-(4-((2-(2,4-dioxotetrahydropyrimidin-1(2H)-yl)pyridin-4-yl)methyl)piperazin-1-yl)piperidin-1-yl)-9-ethyl-6,6-dimethyl-11-oxo-6,11-dihydro-5H-benzo[b]carbazole-3-carbonitrile]	50 to 100	1 to 10		IC50 (MCF7): 500 to 1000 nM
COc1cc(N2CCN(Cc3ccc(N4CCC(=O)NC4=O)nc3)CC2)ccc1Nc1ncc(Cl)c(Nc2ccccc2P(C)(C)=O)n1 [GT-07350, 1-(5-((4-(4-((5-chloro-4-((2-(dimethylphosphoryl)phenyl)amino)pyrimidin-2-yl)amino)-3-methoxyphenyl)piperazin-1-yl)methyl)pyridin-2-yl)dihydropyrimidine-2,4(1H,3H)-dione]	100 to 500	50 to 100		IC50 (H1975): 500 to 1000 nM
COc1cc(N2CCN(Cc3ccnc(C4CCC(=O)NC4=O)c3)CC2)ccc1Nc1ncc(Cl)c(Nc2ccccc2P(C)(C)=O)n1 (stereo not drawn) [GT-07712, 3-(4-((4-(4-((5-chloro-4-((2-(dimethylphosphoryl)phenyl)amino)pyrimidin-2-yl)amino)-3-methoxyphenyl)piperazin-1-yl)methyl)pyridin-2-yl)piperidine-2,6-dione]	100 to 500	10 to 50		IC50 (H1975): 500 to 1000 nM
CCc1cc2c(cc1N1CCC(N3CCN(Cc4cc(N5CCC(=O)NC5=O)ncc4F)CC3)CC1)C(C)(C)c1[nH]c3cc(C#N)ccc3c1C2=O [GT-07700, 8-(4-(4-((2-(2,4-dioxotetrahydropyrimidin-1(2H)-yl)-5-fluoropyridin-4-yl)methyl)piperazin-1-yl)piperidin-1-yl)-9-ethyl-6,6-dimethyl-11-oxo-6,11-dihydro-5H-benzo[b]carbazole-3-carbonitrile]	50 to 100	1 to 10		IC50 (MCF7): 500 to 1000 nM
CC(=O)c1c(C)c2cnc(Nc3ccc(N4CCN(Cc5cccc(N6CCC(=O)NC6=O)c5)CC4)cn3)nc2n(C2CCCC2)c1=O [GT-06577, 1-(3-((4-(6-((6-acetyl-8-cyclopentyl-5-methyl-7-oxo-7,8-dihydropyrido[2,3-d]pyrimidin-2-yl)amino)pyridin-3-yl)piperazin-1-yl)methyl)phenyl)dihydropyr imidine-2,4(1H,3H)-dione]				pIC50 (MCF7; CCK-8, read-out: Inhibitory activity (IC50) on tumor cell proliferation, MCF7): 6.30 to 7.00
O=C1CCN(c2cncc(CN3CCN(c4ccc(-c5cc(F)c6c(c5)C(=O)N(C(C(=O)Nc5nccs5)c5ncn7c5CCC7)C6)cc4)CC3)c2)C(=O)N1 (stereo not drawn) [GT-07380, 2-(6,7-dihydro-5H-pyrrolo[1,2-c]imidazol-1-yl)-2-(6-(4-(4-((5-(2,4-dioxotetrahydropyrimidin-1(2H)-yl)pyridin-3-yl)methyl)piperazin-1-yl)phenyl)-4-fluoro-1-oxoisoindolin-2-yl)-N-(thiazol-2-yl)acetamide]			8.00 to 9.00	
O=C1CCN(c2cccc(CN3CCC(N4CCN(c5ccc(-c6cc(F)c7c(c6)C(=O)N(C(C(=O)Nc6nccs6)c6ncn8c6CCC8)C7)cc5)CC4)CC3)c2)C(=O)N1 (stereo not drawn) [GT-06328, 2-(6,7-dihydro-5H-pyrrolo[1,2-c]imidazol-1-yl)-2-(6-(4-(4-(1-(3-(2,4-dioxotetrahydropyrimidin-1(2H)-yl)benzyl)piperidin-4-yl)piperazin-1-yl)phenyl)-4-fluoro-1-oxoisoindolin-2-yl)-N-(thiazol-2-yl)acetamide]			8.00 to 9.00	
Cc1cc(Nc2ncc(Cl)c(Nc3ccccc3S(=O)(=O)C(C)C)n2)c(OC(C)C)cc1C1CCN(Cc2cc(C3CCC(=O)NC3=O)cnc2F)CC1 (stereo not drawn) [GT-07598, 3-(5-((4-(4-((5-chloro-4-((2-(isopropylsulfonyl)phenyl)amino)pyrimidin-2-yl)amino)-5-isopropoxy-2-methylphenyl)piperidin-1-yl)methyl)-6-fluoropyridin-3-yl)piperidine-2,6-dione]	100 to 500	100 to 500		
O=C1CCC(c2ccc(CN3C[C@H]4C[C@@H]3CN4c3ccc(-c4cc(F)c5c(c4)C(=O)N(C(C(=O)Nc4nccs4)c4ncn6c4CCC6)C5)cc3)cc2)C(=O)N1 (stereo partly drawn) [GT-06176, 2-(6,7-dihydro-5H-pyrrolo[1,2-c]imidazol-1-yl)-2-(6-(4-((1R,4R)-5-(4-(2,6-dioxopiperidin-3-yl)benzyl)-2,5-diazabicyclo[2.2.1]heptan-2-yl)phenyl)-4-fluoro-1-oxoisoindolin-2-yl)-N-(thiazol-2-yl)acetamide]			8.00 to 9.00	
CN(Cc1ccc(N2CCC(=O)NC2=O)nc1)C1CCN(c2ccc(-c3cc(F)c4c(c3)C(=O)N(C(C(=O)Nc3nccs3)c3ncn5c3CCC5)C4)cc2)CC1 (stereo not drawn) [GT-05283, 2-(6,7-dihydro-5H-pyrrolo[1,2-c]imidazol-1-yl)-2-(6-(4-(4-(((6-(2,4-dioxotetrahydropyrimidin-1(2H)-yl)pyridin-3-yl)methyl)(methyl)amino)piperidin-1-yl)phenyl)-4-fluoro-1-oxoisoindolin-2-yl)-N-(thiazol-2-yl)acetamide]			8.00 to 9.00	
O=C1CCC(c2cncc(CN3CCN(c4ccc(-c5cc(F)c6c(c5)C(=O)N(C(C(=O)Nc5nccs5)c5ncn7c5CCC7)C6)cc4)CC3)c2)C(=O)N1 (stereo not drawn) [GT-07472, 2-(6,7-dihydro-5H-pyrrolo[1,2-c]imidazol-1-yl)-2-(6-(4-(4-((5-(2,6-dioxopiperidin-3-yl)pyridin-3-yl)methyl)piperazin-1-yl)phenyl)-4-fluoro-1-oxoisoindolin-2-yl)-N-(thiazol-2-yl)acetamide]			8.00 to 9.00	
CCc1cc2c(cc1N1CCC(N3CCN(Cc4ccnc(C5CCC(=O)NC5=O)c4)CC3)CC1)C(C)(C)c1[nH]c3cc(C#N)ccc3c1C2=O (stereo not drawn) [GT-07704, 8-(4-(4-((2-(2,6-dioxopiperidin-3-yl)pyridin-4-yl)methyl)piperazin-1-yl)piperidin-1-yl)-9-ethyl-6,6-dimethyl-11-oxo-6,11-dihydro-5H-benzo[b]carbazole-3-carbonitrile]	50 to 100	1 to 10		IC50 (H1975): 500 to 1000 nM
O=C1CCN(c2ccc(CN3C[C@H]4C[C@@H]3CN4c3ccc(-c4cc(F)c5c(c4)C(=O)N(C(C(=O)Nc4nccs4)c4ncn6c4CCC6)C5)cc3)cn2)C(=O)N1 (stereo partly drawn) [GT-06191, 2-(6,7-dihydro-5H-pyrrolo[1,2-c]imidazol-1-yl)-2-(6-(4-((1R,4R)-5-((6-(2,4-dioxotetrahydropyrimidin-1(2H)-yl)pyridin-3-yl)methyl)-2,5-diazabicyclo[2.2.1]heptan-2-yl)phenyl)-4-fluoro-1-oxoisoindolin-2-yl)-N-(thiazol-2-yl)acetamide]			8.00 to 9.00	
